Patent US4317912A, “Tetracyclic indole derivatives” (Farmitalia Carlo Erba S.p.A., priority 1979, dated 1982)

Assays:
[1] = system: spontaneously hypertensive male rats, strain MHS; assay: Anti-hypertensive activity in spontaneously hypertensive rats (MHS), blood pressure and heart rate measured at the tail; type: in vivo, rat (spontaneously hypertensive; settings: for Change in BP, 1st day, 1 hr after dose / Change in HR, 1st day, 1 hr after dose / Change in BP, 1st day, 5 hrs after dose / Change in HR, 1st day, 5 hrs after dose / Change in BP, 4th day, 1 hr after dose / Change in HR, 4th day, 1 hr after dose / Change in BP, 4th day, 5 hrs after dose / Change in HR, 4th day, 5 hrs after dose: mean of 4 animals; for Tolerance after repeated administration: four days, 355/1226 3 mg/kg, 355/1225 and 355/1229 5 mg/kg per os
Description: Four spontaneously hypertensive male rats, strains MHS, weighing 250-300 g for each group were used.
The animals were treated for four consecutive days. Drugs were administered by gastric gavage, suspended in 5% arabic gum (0.2 ml/100 g body weight). Blood pressure (BP) and heart rate (HR) were measured at the tail by BP Recorder W+W. Blood pressure and heart rate were measured on the 1st and 4th day of treatment 1 hour before and 1 and 5 hours after drug administration.
*Data of LD50 from the literature. In Tables 1 and 2 are reported
the results of the study of the activity of compounds 355/1165 and
355/1166 upon the BP and HR (measured indirectly by means of a tail cuff)
of spontaneous hypertensive rats, MHS strain (4 rats each group). The
compounds were given orally, once a day for 4 consecutive days.

[2] = Acute (orientative) oral toxicity in mice; settings: mouse, in vivo
Source text: The male mice for each group were orally treated with drugs at different dose levels for the determination of orientative toxicity.

[3] = system: spontaneously hypertensive rats (Okamoto strain); assay: Anti-hypertensive activity in conscious spontaneously hypertensive rats (Okamoto), carotid artery catheter; type: in vivo, rat (spontaneously hypertensive
Description: Blood pressure recordings were made in conscious hypertensive unrestrained rats weighing approximately 300 g, via a catheter cronically inserted into the left common carotid artery. Implantation of arterial cannula was made under sodium pentobarbital anesthesia (50 mg/kg i.p.). A 1 cm long incision was made through the previously shaved ventral surface of the neck and the tissues overlying the trachea parted by blunt dissection to reveal the carotid artery. The polyethylene catheter used was made with PE 50 tubing, previously filled with saline containing 250 I.U./ml heparin. The tip of the cannula was pushed at least 2 cm inside the vessel toward the heart. The cannula was then firmly tied and passed beneath the skin to emerge from a small incision in the back of the neck. During the postoperative period and before the start of each recording session, the cannula was flushed through daily with saline containing heparin (250 U.I./ml). The experiments were performed two days after surgery. Drugs were administered by gastric gavage.

[4] = MHS rats, 0.5 mg/kg os, 1st day
[5] = MHS rats, 0.5 mg/kg os, 4th day
[6] = 1 mg/kg os, 30', mean of 6 animals
[7] = 1 mg/kg os, 60', mean of 6 animals
[8] = 1 mg/kg os, 120', mean of 6 animals
[9] = 1 mg/kg os, 240', mean of 6 animals
[10] = 1 mg/kg os, 360', mean of 6 animals

Compound: CN1CC(CC(C#N)C(N)=O)C2Cc3cccc4[nH]cc(c34)CC21 (stereo not drawn) [355/1165, 2-Cyano-3-[trans-5(10→9)abeo-6-methyl-ergoline-8β]-propionamide]
- Change in BP, 1st day, 1 hr after dose [1, 4]: -13 mmHg
- Change in HR, 1st day, 1 hr after dose [1, 4]: -25 b/min
- Change in BP, 1st day, 5 hrs after dose [1, 4]: -17 mmHg
- Change in HR, 1st day, 5 hrs after dose [1, 4]: -25 b/min
- Change in BP, 4th day, 1 hr after dose [1, 5]: -17 mmHg
- Change in HR, 4th day, 1 hr after dose [1, 5]: -30 b/min
- Change in BP, 4th day, 5 hrs after dose [1, 5]: -3 mmHg
- Change in HR, 4th day, 5 hrs after dose [1, 5]: -35 b/min
- Change in BP, 1st day, 1 hr after dose ([1]; MHS rats, 1 mg/kg os, 1st day): -15 mmHg
- Change in HR, 1st day, 1 hr after dose ([1]; MHS rats, 1 mg/kg os, 1st day): -20 b/min
- Change in BP, 1st day, 5 hrs after dose ([1]; MHS rats, 1 mg/kg os, 1st day): -19 mmHg
- Change in HR, 1st day, 5 hrs after dose ([1]; MHS rats, 1 mg/kg os, 1st day): -15 b/min
- Change in BP, 4th day, 1 hr after dose ([1]; MHS rats, 1 mg/kg os, 4th day): -30 mmHg
- Change in HR, 4th day, 1 hr after dose ([1]; MHS rats, 1 mg/kg os, 4th day): -27 b/min
- Change in BP, 4th day, 5 hrs after dose ([1]; MHS rats, 1 mg/kg os, 4th day): -42 mmHg
- Change in HR, 4th day, 5 hrs after dose ([1]; MHS rats, 1 mg/kg os, 4th day): -20 b/min
- Change in BP, 1st day, 1 hr after dose ([1]; MHS rats, 2 mg/kg os, 1st day): -25 mmHg
- Change in HR, 1st day, 1 hr after dose ([1]; MHS rats, 2 mg/kg os, 1st day): -47 b/min
- Change in BP, 1st day, 5 hrs after dose ([1]; MHS rats, 2 mg/kg os, 1st day): -53 mmHg
- Change in HR, 1st day, 5 hrs after dose ([1]; MHS rats, 2 mg/kg os, 1st day): -80 b/min
- Change in BP, 4th day, 1 hr after dose ([1]; MHS rats, 2 mg/kg os, 4th day): -33 mmHg
- Change in HR, 4th day, 1 hr after dose ([1]; MHS rats, 2 mg/kg os, 4th day): -48 b/min
- Change in BP, 4th day, 5 hrs after dose ([1]; MHS rats, 2 mg/kg os, 4th day): -45 mmHg
- Change in HR, 4th day, 5 hrs after dose ([1]; MHS rats, 2 mg/kg os, 4th day): -55 b/min
- Effect on BP ([1]; MHS rats, 0.5, 1 and 2 mg/kg per os, 1st and 4th day): significantly lowers BP on the 1st and 4th day after the treatment
- Antihypertensive activity compared with Hydralazine, 1st day ([1]; MHS rats, 1st day, 355/1165 2 mg/kg, 355/1226 3 mg/kg per os vs Hydralazine 3 mg/kg per os): more marked antihypertensive activity
- Antihypertensive effect compared with Hydralazine, 4th day ([1]; MHS rats, 4th day, 355/1165 2 mg/kg, 355/1226 3 mg/kg per os vs Hydralazine 3 mg/kg per os): even greater effect
- Tolerance after repeated administration ([1]; MHS rats, 355/1165 2 mg/kg): tolerance does not occur after repeated administration
- Activity compared with α-methyl-DOPA ([1]; MHS rats, 355/1165 2 mg/kg, 355/1226 3 mg/kg per os): 50 times
- LD50 at 168 h [2]: > 1000 mg/kg
- Change in blood pressure after treatment, 30' [3, 6]: -21 mmHg
- Change in heart rate after treatment, 30' [3, 6]: -25 b/min
- Change in blood pressure after treatment, 60' [3, 7]: -29 mmHg
- Change in heart rate after treatment, 60' [3, 7]: -45 b/min
- Change in blood pressure after treatment, 120' [3, 8]: -33 mmHg
- Change in heart rate after treatment, 120' [3, 8]: -52 b/min
- Change in blood pressure after treatment, 240' [3, 9]: -26 mmHg
- Change in heart rate after treatment, 240' [3, 9]: -8 b/min
- Change in blood pressure after treatment, 360' [3, 10]: -23 mmHg
- Change in heart rate after treatment, 360' [3, 10]: +18 b/min
- Activity compared with hydralazine ([3]; 1 mg/kg per os): 3 times
- Hypotensive activity ([3]; 1 mg/kg per os): marked and long lasting hypotensive activity
- Effect on heart rate ([3]; oral (Table 4)): slight bradycardia and never tachicardia

Compound: CN1CC(CCC#N)C2Cc3cccc4[nH]cc(c34)CC21 (stereo not drawn) [355/1225, Trans-5(10→9)abeo-6-methyl-ergoline-8β-propionitrile]
- Change in BP, 1st day, 1 hr after dose ([1]; MHS rats, 1 mg/kg os, 1st day): -28 mmHg
- Change in HR, 1st day, 1 hr after dose ([1]; MHS rats, 1 mg/kg os, 1st day): +5 b/min
- Change in BP, 1st day, 5 hrs after dose ([1]; MHS rats, 1 mg/kg os, 1st day): -17 mmHg
- Change in HR, 1st day, 5 hrs after dose ([1]; MHS rats, 1 mg/kg os, 1st day): -22 b/min
- Change in BP, 4th day, 1 hr after dose ([1]; MHS rats, 1 mg/kg os, 4th day): -34 mmHg
- Change in HR, 4th day, 1 hr after dose ([1]; MHS rats, 1 mg/kg os, 4th day): -40 b/min
- Change in BP, 4th day, 5 hrs after dose ([1]; MHS rats, 1 mg/kg os, 4th day): -21 mmHg
- Change in HR, 4th day, 5 hrs after dose ([1]; MHS rats, 1 mg/kg os, 4th day): -43 b/min
- Change in BP, 1st day, 1 hr after dose ([1]; MHS rats, 5 mg/kg os, 1st day): -67 mmHg
- Change in HR, 1st day, 1 hr after dose ([1]; MHS rats, 5 mg/kg os, 1st day): -32 b/min
- Change in BP, 1st day, 5 hrs after dose ([1]; MHS rats, 5 mg/kg os, 1st day): -42 mmHg
- Change in HR, 1st day, 5 hrs after dose ([1]; MHS rats, 5 mg/kg os, 1st day): -4 b/min
- Change in BP, 4th day, 1 hr after dose ([1]; MHS rats, 5 mg/kg os, 4th day): -34 mmHg
- Change in HR, 4th day, 1 hr after dose ([1]; MHS rats, 5 mg/kg os, 4th day): -55 b/min
- Change in BP, 4th day, 5 hrs after dose ([1]; MHS rats, 5 mg/kg os, 4th day): -21 mmHg
- Change in HR, 4th day, 5 hrs after dose ([1]; MHS rats, 5 mg/kg os, 4th day): -59 b/min
- Activity compared with Hydralazine and α-methyl-DOPA ([1]; MHS rats, 5 mg/kg per os, 1st and 4th day, vs Hydralazine (3 mg/kg per os) and α-methyl-DOPA): greater activity
- Time of peak effect on blood pressure ([1]; MHS rats, 1 and 5 mg/kg orally): one hour after dosing
- Effect on blood pressure ([1]; MHS rats, 1 and 5 mg/kg orally, 1st and 4th day): reduces blood pressure in dose-dependent manner on both the 1st and 4th day of treatment
- Tolerance after repeated administration ([1]; MHS rats, 355/1165 2 mg/kg): No tolerance occurs
- LD50 at 168 h [2]: 600 mg/kg
